# Values joined by “and” are separate entries in the source; they are usually repeats but may differ in a detail not shown here. Identical values can stand only once. Strand notation (5' to 3'): a small letter for the sugar, then the base; units joined by * are phosphorothioate-linked, units joined directly phosphodiester-linked; [ ] holds rarer units or linkages, { } end groups; capitals alone tell only the bases. [cagedT] = caged thymidine: thymidine bearing a photolabile caging group, removed by UV irradiation at 365 nm; [cageT] = thymidine carrying a photolabile caging group (caged thymidine), removed by 365 nm UV light; [NPOM-T] = NPOM-caged (photocaged) thymidine; d = 2'-deoxy (DNA)
# Assays:
# [1] = tested on: Renilla luciferase reporter gene; experiment: Renilla luciferase antisense assay in NIH 3T3 cells (dual reporter); assay type: cell-based, mouse; conditions: for antisense activity / effect on the luciferase signal: NIH 3T3, without UV irradiation
# Description: The error bars represent the standard deviation of three independent experiments.
# These antisense oligomers were transfected into mouse fibroblast cells (NIH 3T3) together with a dual reporter system encoding Renilla luciferase and firefly luciferase as a transfection control.
# [2] = tested on: complementary RNA sequence (5′ UCCAGAACAAAGGAAACG 3′); experiment: Melting temperature of PS DNA/RNA hybrids before and after irradiation; assay type: binding; conditions: PS DNA/RNA hybrid; for Mp/° C. +UV: after irradiation (5 min, 365 nm, 23 W); for Mp/° C. −UV: before irradiation
# Description: The capacity of the three and four caging groups to inhibit hybridization of the caged PS DNA oligomer to the complementary RNA sequence (5′ UCCAGAACAAAGGAAACG 3′) [SEQ ID NO 14] was examined. Hybridization was monitored on a BioRad MyiQ RT-PCR thermocycler by conducting a sequence of 3 heating and cooling cycles. […] Complete hybridization was restored upon a 5-minute irradiation at 365 nm for both caged analogs (Table 2).
# [3] = Stability of the caging group to PCR conditions; assay type: physicochemical; conditions: elevated temperatures required for PCR
# chordin = experiment: Light-regulation of morpholino activity in zebrafish embryos; assay type: in vivo
# Method: Percentages represent the frequency of the pictured phenotype in live fish. A) Non-injected embryo (100%). B) Injection of the non-caged Chordin-0 MO (100%). C) Injection of the caged MO (Chordin-4) −UV irradiation (80%). D) Injection of the caged MO (Chordin-4) +UV irradiation for 60 sec at 365 nm (100%). Identical amounts were injected in each experiment. The expanded blood island (arrows) is indicative of the chordin phenotype.
# Injections with the non-caged and caged morpholino oligomers containing four […] monomers targeting chordin were conducted. Zebrafish embryos were injected into the yolk sac at the 1-4 cell stage with ˜1 nl of 500 μm caged Chordin-4 morpholino (5′ AT*CCACAGCAGCCCCT*CCAT*CAT*CC 3′ [SEQ ID NO 2]; T* denotes the caged thymidine; containing 0.15% phenol red to verify injection). Immediately after injection, half of the injected embryos were exposed to 365 nm UV light for 60 sec. The other half was protected from light. Half of the uninjected control embryos were also exposed to 365 nm UV for 60 sec, and no phenotypic differences between ±UV were detected. All embryos were grown at 28° C. for about 28 hours before their phenotypes were photographed. The chordin gene induces dorsalization of the developing embryo and injection of an anti-chordin MO induces a phenotype resembling chordin null-mutant embryos by displaying abnormally shaped somites, an expanded blood island (see arrows in FIG. 5), an abnormal tail fin, and a reduced head (see FIG. 5B compared to the non-injected fish shown in FIG. 5A).
# [4] = tested on: DNA template (plasmid DNA); experiment: Light-triggered polymerase chain reaction (activation and deactivation); assay type: biochemical
# Method: The DNA template (1.5 ng/μL of plasmid DNA) was incubated in the presence of P5 and a reverse primer (5′[…]-GT 3′, [SEQ ID NO 11] 1 μM each; the same reverse primer was used in all PCRs) with nucleotide triphosphates (dNTPs, 0.3 mM each), in Taq Reaction Buffer (10 mM Tris-HCl, 50 mM. KCl, 1.5 mM MgCl2, pH 8.3) and water. Taq DNA Polymerase (3 units/μL) was added to initiate the reaction. Prior to placement in a PCR thermocycler (Eppendor Mastercycler) the reaction was either irradiated for 8 minutes at 365 nm, or maintained in the dark. An initial denaturation at 95° C. was performed, followed by 40 cycles of 95° C. (30 sec), 50° C. (30 sec), and 72° C. (1 min), with a final extension at 72° C. (2 min). The reactions were conducted in triplicate, visualized on a 1% agarose gel, and quantitated (all DNA was quantified by band integration in ethidium bromide stained agarose gels using Image Quant 5.2). […] This experiment represented the first example of a light-activated PCR. While we initially employed irradiation prior to the thermal cycling, temporal control was also achieved by initiating the reaction through irradiation at a specific timepoint. Here, an identical reaction with UV irradiating at cycle 15 was conducted. Prior to irradiation, no PCR product can be detected in reactions conducted with the caged primer P5. In contrast, the non-caged primer P1 lead to the expected exponential amplification.
# After achieving photochemical control of the activation of PCR at a specific time point, the possibility to switch-off PCR activity via light irradiation was examined. This was accomplished by designing a self-complementary primer which was predisposed to form a hairpin, rather than act as a PCR primer. By installing caging groups on the complementary portion of this sequence it was possible to block self-hybridization, which enabled the polymerization reaction. The PCR was then stopped by removing the photoactive groups, leading to hairpin formation and primer deactivation (FIG. 7). In order to achieve photochemical deactivation, an appropriate hairpin primer P8 was designed (5′ […] 3′) [SEQ ID NO. 12], and a photocaged analog P9 was synthesized (5′ […] 3′) [SEQ ID NO. 13]. […] However, in the absence of light irradiation the caged hairpin primer P9 was successful in acting as a primer, yielding 137 ng of PCR product (not shown).
# Light-regulatory mechanisms were also employed in a temporally controlled fashion by irradiating the caged primer after 10 cycles of PCR. The non-caged primer P8 was used as a control, as it formed a hairpin immediately, blocking Taq DNA polymerase and inhibiting amplification. Because the caged primer P9 was able to bind to the DNA template, amplification occurred. […] At the same point, amplification continued in the non-irradiated reaction with P9.
# [5] = tested on: non-caged complement (5′ CGAACCTGGTCGAAATCAG 3′); experiment: Melting temperatures of caged and non-caged PCR primers with complementary DNA; assay type: binding; conditions: for Mp/° C. +UV: after 8 minutes irradiation at 365 nm; for Mp/° C. −UV: before UV, 1 μM primer and complementary DNA; for melting temperature depression: single caging group, versus P1, −UV
# Method: The DNA oligomers P1-P7, consisting of 19 nucleotides, a typical length for PCR primers, and containing 0-4 caged thymidines have been synthesized (Table 1). These primers were than analyzed for their annealing and melting properties in the presence of a complementary oligonucleotide.
# Melting curves were measured on a BioRad MyiQ RT-PCR thermocycler by conducting a sequence of 3 heating and cooling cycles (1 μM of both primer and complementary DNA with 12.5 μL iQ SYBR Green Supermix to a total volume of 25 μL; 40° C. to 80° C. with a 0.5° C./min ramp). The melting temperatures were determined to be 65.3° C. (P1), 62.1° C. (P2), 54.3° C. (P3), 55.5° C. (P4), and 50.0° C. (P6). […] This effect was less pronounced in P2, perhaps due to the caged T's close proximity to the 5′ terminus, which lead to a lower level of interference with the hybridization of neighboring nucleotides. With the incorporation of additional caging groups in P4-P7, melting temperatures decreased further. However, addition of a single caged thymidine close to the 5′ terminus of P3 had no effect in P4. […] In order to ensure a complete removal of the photolabile group, each primer was irradiated for 8 minutes at 365 nm, and then analyzed in the same melting temperature assay.
# [6] = activation experiment, no UV irradiation, 40 cycles
compound,measurement,setting,value
"3-Caged: phosphorothioate DNA 5′ CGTTT*CCTTT*GTTCT*GGA 3′, T* NPOM-caged thymidine, SEQ ID NO 17 (DNA dC*dG*dT*dT*d[NPOM-T]*dC*dC*dT*dT*d[NPOM-T]*dG*dT*dT*dC*d[NPOM-T]*dG*dG*dA)",antisense activity / effect on the luciferase signal,[1],completely inhibited the antisense activity
same,Mp/° C. +UV,[2],39.2 ± 0.6 °C
"5. Control: control phosphorothioate DNA 5′ TCCAGAACAAAGGAAACG 3′, SEQ ID NO 15 (DNA dT*dC*dC*dA*dG*dA*dA*dC*dA*dA*dA*dG*dG*dA*dA*dA*dC*dG)",antisense activity / effect on the luciferase signal,[1],no effect on the luciferase signal
same,Mp/° C. −UV,[2],No hybridization was detected
"7. Non-caged: non-caged phosphorothioate DNA targeting Renilla luciferase, 5′ CGTTTCCTTTGTTCTGGA 3′, SEQ ID NO 16",down-regulation of the Renilla luciferase signal,"[1]; NIH 3T3, no UV",70%
same,Mp/° C. +UV,[2],39.3 ± 0.8 °C
same,Mp/° C. −UV,[2],39.5 ± 0.5 °C
same,Mp/° C. −UV,[2]; listed as non-caged PS DNA,approximately 39 °C
"Cc1cn(C2CC(O)C(CO)O2)c(=O)n(COC(C)c2cc3c(cc2[N+](=O)[O-])OCO3)c1=O (stereo not drawn) [monomeric caged thymidine, Caged thymidine]",stability of the caging group to PCR conditions,[3],unaffected by the elevated temperatures
"Chordin-4: caged morpholino 5′ AT*CCACAGCAGCCCCT*CCAT*CAT*CC 3′, T* caged thymidine, four 21 monomers (DNA ATCCACAGCAGCCCCTCCATCATCC; morpholino, caged thymidines, chemistry not fully specified)",frequency of the pictured phenotype in live fish,"chordin; +UV irradiation for 60 sec at 365 nm, chordin phenotype pictured",100%
same,morpholino antisense activity (phenotype),"chordin; protected from light, about 28 hours at 28° C.",completely inactive
same,frequency of the pictured phenotype in live fish,"chordin; −UV irradiation, wild-type phenotype pictured",80%
"P1: non-caged 19 nucleotide PCR primer 5′ CTGATTTCGACCAGGTTCG 3′, SEQ ID NO 3 (DNA, backbone not given here) [reference compound]",PCR product,[4]; [6],approximately 140 ng
same,Mp/° C. +UV,[5],65.0 ± 0.8 °C
same,Mp/° C. −UV,[5],65.3 °C and 65.3 ± 0.3 °C
"P2: primer 5′ CTGATTTCGACCAGGTTCG 3′ with a single caged thymidine close to the 5′ terminus, SEQ ID NO 4 (DNA, [cageT] at 2, backbone not given here)",Mp/° C. +UV,[5],64.1 ± 0.2 °C
same,Mp/° C. −UV,[5],62.1 °C and 62.1 ± 0.7 °C
same,melting temperature depression,[5],3.2 °C
"P3: primer 5′ CTGATTTCGACCAGGTTCG 3′ with a single caged thymidine, SEQ ID NO 5 (DNA, [cageT] at 7, backbone not given here)",Mp/° C. +UV,[5],64.1 ± 0.8 °C
same,Mp/° C. −UV,[5],54.3 °C and 54.3 ± 1.1 °C
same,melting temperature depression,[5],11.0 °C
"P4: P3 with an additional caged thymidine close to the 5′ terminus, SEQ ID NO 6 (DNA CTGATTTCGACCAGGTTCG; DNA, [cageT] at 2, 7, backbone not given here)",Mp/° C. +UV,[5],63.8 ± 0.3 °C
same,Mp/° C. −UV,[5],55.5 °C and 55.5 ± 0.5 °C
"P5: primer with three caging groups distributed throughout the DNA oligomer, SEQ ID NO 7 (DNA CTGATTTCGACCAGGTTCG; DNA, [cageT] at 2, 7, 17, backbone not given here)",DNA amplification,[4]; UV irradiation at cycle 15,increases exponentially
same,PCR product,"[4]; activation experiment, irradiated 8 minutes at 365 nm before cycling, 40 cycles",comparable amounts of PCR product as found in the reaction with P1
same,PCR product,[4]; [6],only trace amounts
same,Mp/° C. +UV,[5],64.2 ± 0.2 °C
same,Mp/° C. −UV,[5],No melting temperatures could be measured
"P6: primer with a cluster of three caged thymidines, SEQ ID NO 8 (DNA CTGATTTCGACCAGGTTCG; DNA, [cageT] at 5, 6, 7, backbone not given here)",Mp/° C. +UV,[5],64.5 ± 0.5 °C
same,Mp/° C. −UV,[5],50.0 °C and 50.0 ± 1.0 °C
"P7: caged primer 5′ CTGATTTCGACCAGGTTCG 3′, SEQ ID NO 9, probably four caged thymidines (DNA, [cagedT] at 2, 5, 7, 17, backbone not given here; PCR primer)",Mp/° C. +UV,[5],64.2 ± 0.3 °C
same,Mp/° C. −UV,[5],No melting temperatures could be measured
"P8: non-caged hairpin primer 5′ GGTCAGTAAATTGTTTTTCAATTTACTGACCG 3′, SEQ ID NO 12 (hairpin primer, further chemistry not given here) [reference compound]",PCR product,"[4]; deactivation (hairpin primer) experiment, no light irradiation, 25 cycles",very little PCR product
